# Data reported in ChEMBL document CHEMBL1201862, “PubChem BioAssay data set” (2004).
# Where “and” joins values, the source holds several entries; their conditions need not be identical. Equal entries are not always repeated.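 Cells were grown in 96-well plates and exposed to each compound for 48 hours at five concentrations; endpoints were interpolated linearly between bracketing concentrations, or set to the highest concentration if not reached. At the GI50, growth is halved.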 Calls of active or inactive are those of the source. No stated cut-off is given here; in the data, active = GI50 up to about 1.1 µM and inactive = higher.
# What was measured:
# Test in all cases: inhibition of tumour cell growth, NCI panel, 48 h
# 786-0 = system: 786-0
# A549 = system: A549
# BT-549 = system: BT-549
# CAKI-1 = system: CAKI-1
# COLO 205 = system: COLO 205
# Hs-578T = system: Hs-578T
# K562 = system: K562
# MDA-MB-231 = system: MDA-MB-231
# MDA-MB-435 = system: MDA-MB-435
# Malme-3M = system: Malme-3M
# OVCAR-4 = system: OVCAR-4
# OVCAR-8 = system: OVCAR-8
# RXF 393 = system: RXF 393
# SK-MEL-2 = system: SK-MEL-2
# SK-MEL-5 = system: SK-MEL-5
# SN12C = system: SN12C
# T47D = system: T47D
# TK-10 = system: TK-10
# EKVX = system: EKVX
# OVCAR-3 = system: OVCAR-3
Compound,GI50 (786-0),GI50 (A549),GI50 (BT-549),GI50 (CAKI-1),GI50 (COLO 205),GI50 (Hs-578T),GI50 (K562),GI50 (MDA-MB-231),GI50 (MDA-MB-435),GI50 (Malme-3M),GI50 (OVCAR-4),GI50 (OVCAR-8),GI50 (RXF 393),GI50 (SK-MEL-2),GI50 (SK-MEL-5),GI50 (SN12C),GI50 (T47D),GI50 (TK-10),GI50 (EKVX),GI50 (OVCAR-3)
O=c1/c(=C/c2ccc(-c3ccc(Cl)cc3Cl)o2)sc2n1[C@@H](c1ccc(Cl)cc1)C=C(c1cc(F)c(Cl)cc1Cl)N=2,45.3 µM (inactive),> 100 µM (inactive),45.8 µM (inactive),> 100 µM (inactive),78.5 µM (inactive),29.6 µM (inactive),38.8 µM (inactive),23.6 µM (inactive),54.3 µM (inactive),> 100 µM (inactive),41.9 µM (inactive),45.7 µM (inactive),31.2 µM (inactive),40.5 µM (inactive),46.5 µM (inactive),76.4 µM (inactive),19.2 µM (inactive),13.4 µM (inactive),–,–
CC(C)(C)n1c(=O)[nH]n(C2NN=Cc3cccc4cccc2c34)c1=O (centres undefined),57.1 µM (inactive),18.7 µM (inactive),21.9 µM (inactive),27.5 µM (inactive),30 µM (inactive),39.4 µM (inactive),17.9 µM (inactive),21.5 µM (inactive),34.3 µM (inactive),36 µM (inactive),42.6 µM (inactive),40.3 µM (inactive),10.9 µM (inactive),32.1 µM (inactive),–,79.3 µM (inactive),47.9 µM (inactive),41.3 µM (inactive),15.4 µM (inactive),51.9 µM (inactive)
CC(C)C1=C2CCC3(C)C(CCC4C5C6OCC5(CCC6(C)C)CCC43C)C2(C)CC1 (centres undefined),17.7 µM (inactive),17.3 µM (inactive),22.4 µM (inactive),20 µM (inactive),16.7 µM (inactive),22.8 µM (inactive),–,20 µM (inactive),17.4 µM (inactive),20.8 µM (inactive),25.3 µM (inactive),17.7 µM (inactive),20.6 µM (inactive),29.6 µM (inactive),21.8 µM (inactive),15 µM (inactive),27 µM (inactive),16.7 µM (inactive),19.1 µM (inactive),21.3 µM (inactive)
O=S(=O)(O)c1ccc2c(/N=N/c3ccc(S(=O)(=O)O)c4ccccc34)c(O)c(S(=O)(=O)O)cc2c1,> 100 µM (inactive),–,> 100 µM (inactive),> 100 µM (inactive),> 100 µM (inactive),> 100 µM (inactive),> 100 µM (inactive),> 100 µM (inactive),> 100 µM (inactive),> 100 µM (inactive),> 100 µM (inactive),> 100 µM (inactive),> 100 µM (inactive) and 63.5 µM (inactive),> 100 µM (inactive),> 100 µM (inactive),> 100 µM (inactive),> 100 µM (inactive),> 100 µM (inactive),> 100 µM (inactive),> 100 µM (inactive)
CC(=O)OC(C)c1cc2c(s1)C(=O)c1scc(C(C)OC(C)=O)c1C2=O (centres undefined),0.244 µM (active),0.363 µM (active),0.218 µM (active),1.56 µM (inactive),0.512 µM (active),0.339 µM (active),0.355 µM (active),0.473 µM (active),0.0292 µM (active),0.139 µM (active),0.298 µM (active),0.24 µM (active),0.301 µM (active),0.227 µM (active),0.0653 µM (active),0.288 µM (active),0.661 µM (active),0.571 µM (active),0.847 µM (active),0.307 µM (active)
CN(C)CCNc1ccc(CO)c2oc3ccc(O)cc3c(=O)c12,8.61 µM (inactive),14.6 µM (inactive),14.6 µM (inactive),21.6 µM (inactive),8.97 µM (inactive),14 µM (inactive),10.2 µM (inactive),17 µM (inactive),13.8 µM (inactive),13.5 µM (inactive),13.8 µM (inactive),7.14 µM (inactive),12.6 µM (inactive),16.6 µM (inactive),14.2 µM (inactive),12.9 µM (inactive),13.3 µM (inactive),17.1 µM (inactive),21.9 µM (inactive),16.5 µM (inactive)
O=C(O)c1cc(N(Cc2ccccc2O)Cc2cc(O)ccc2O)ccc1O [LAVENDUSTIN A],> 100 µM (inactive),> 100 µM (inactive),6.21 µM (inactive),–,> 100 µM (inactive),19.8 µM (inactive),> 100 µM (inactive),> 100 µM (inactive),> 100 µM (inactive),> 100 µM (inactive),> 100 µM (inactive),> 100 µM (inactive),> 100 µM (inactive),> 100 µM (inactive),> 100 µM (inactive),> 100 µM (inactive),> 100 µM (inactive),> 100 µM (inactive),> 100 µM (inactive),> 100 µM (inactive)
